Test results: US9096629B2, “Process of forming iron hydroxypyrone compounds” (Iron Therapeutics Holdings AG, priority 2011, dated 2015)
Values belong to the molecule of their own block, whether it stands above or below them.

What was measured:
[1] = hydrated ion in aqueous solution; cited from earlier work
[2] = Solubility in water / aqueous solution; format: physicochemical
[3] = Stability of maltol in hot aqueous solution; format: physicochemical; details: near boiling temperatures

SMILES: [Cl][Fe]([Cl])[Cl] [Ferric chloride]
- Ka [1]: 7×10^−3

- maximum solubility in water ([2]; water, about 25° C.): about 3.5 g/100 ml water
SMILES: Cc1occc(=O)c1[O-].Cc1occc(=O)c1[O-].Cc1occc(=O)c1[O-].[Fe+3] [ferric trimaltol]

SMILES: [Cl][Fe][Cl] [ferrous chloride]
- Ka [1]: 5×10^−9

- stability in aqueous solution [3]: stable
- solubility in aqueous alkali hydroxide solutions ([2]; aqueous alkali hydroxide solutions): very soluble
- solubility on heating ([2]; heating to near boiling temperatures): 10 g/100 ml
- solubility at low pH ([2]; low pH values of iron chloride solutions (pH 1-5)): virtually insoluble
- solubility on heating ([2]; water, heating to temperatures above 60° C.): up to 10 g/100 ml
- maximum aqueous solubility ([2]; water, pH range 6-8, 20° C.): 1 g/100 ml
SMILES: Cc1occc(=O)c1O [maltol, 3-hydroxy-2-methyl-4-pyrone]
